Results from patent publication US20100267067A1, “Synthase Inhibitor Screening Method” (priority 2007, published 2010).

Legend:
Assay type in all cases: cell-based
[1] = tested on: Bacillus strain secreting a wildtype protease denoted '10R' (SOL000); experiment: Plate growth of Bacillus secreting wildtype 10R protease on LB agar with MGMM and CMA; conditions: for Growth on the plate, 10R WT (SOL000): LB agar with MGMM, 37° C. overnight
From the text: (§1) We wanted to find a concentration of carboxymethoxylhydroxylamine (CMA) that allows only protease-secreting Bacillus colonies to grow in the presence of the small peptide met-gly-met-met (MGMM). CMA inhibits the methionine synthesis in Bacillus cells, which severely hampers their growth. However, in the presence of MGMM, protease-secreting Bacillus cells can grow on CMA containing media. Secreted proteases degrade the MGMM peptide thereby releasing free methionine residues, which are taken up by the protese-secreting Bacillus cells and used for protein synthesis.
(§2) 500 ml LB agar was melted and placed in an incubator until the agar reached 60° C. 5 ml met-gly-met-met (MGMM, Sigma M4786-250MG) (5 mg/ml) and 300 microliter 1% chloramphenicol (in 70% ethanol) was added to the agar.
(§3) 4×25 ml media was transferred with a 25 ml Stripette™ to clean 25 ml Nunc™ containers. Different amounts of CMA (Aldrich C13408-1 g) were added to the media as indicated in the scheme below. All 25 ml media was poured into 9 cm petri dishes and dried in a clean bench; except for the “6×CMA on the plate” where 25 ml media was poured on a 9 cm petridish and dried and 600 microliter CMA (0.56 mg/ml) was spread on the plate afterwards.
(§4) The two micro-organisms were streaked on the 6 different types of plates. All plates were incubated upside down at 37° C. overnight.

[2] = tested on: Bacillus strain secreting inactive 10R protease (S143A) (SOL218); experiment: Plate growth of Bacillus secreting inactive 10R protease on LB agar with MGMM and CMA; conditions: LB agar with MGMM, 37° C. overnight
From the text: as §1, §2, §3, §4

[3] = tested on: Saccharomyces cerevisiae JG 169; experiment: Yeast growth on triglyceride (olive oil) plates containing cerulenin; conditions: 5 mg cerulenin per approx. 510 ml SC-ura agar with olive oil; pENI4158 (lipase) vs pENI3659 (control) transformants
Protocol: Plasmids pENI3659 (control) and pENi4158 (with lipase gene) were transformed into the yeast strain Saccharomyces cerevisiae JG 169 (MAT-alpha; ura 3-52; leu 2-3, 112; his 3-D200; pep 4-113; prc1::HIS3; prb1::LEU2). The transformed yeast was streaked onto plates containing cerulenine and olive oil.
To 450 ml SC-ura-basic agar was added 50 ml 20% glucose and 10 ml olive oil. An UltraTurax™ […] (IKA Labortechnik, Germany) was used to disperse the olive oil. 5 mg cerulenin dissolve in 1 ml ethanol was added and 500 microliter ampicillin (100 mg/ml)). This mix was poured into […] 9 cm petri dishes.
SC-ura-basic agar: 7.5 g Yeast Nitrogen Base without amino acids, 11.3 g Bernstein, 6.8 g NaOH, 5.6 g casamino acids, 0.1 g L-tryptophan, 20 g agar in total of 900 ml water.

[4] = 5xCMA in the plate, 11.2 mg/L CMA
[5] = 6xCMA in the plate, 13.4 mg/L CMA
[6] = 6xCMA on the plate (spread on dried plate), 13.4 mg/L CMA
[7] = 7xCMA in the plate, 15.7 mg/L CMA
[8] = 8xCMA in the plate, 17.9 mg/L CMA

Row | SMILES | Growth on the plate, 10R WT (SOL000) [1, 4] | Growth on the plate, 10R WT (SOL000) [1, 5] | Growth on the plate, 10R WT (SOL000) [1, 6] | Growth on the plate, 10R WT (SOL000) [1, 7] | Growth on the plate, 10R WT (SOL000) [1, 8] | Growth of Bacillus transformant cells which secrete active 10R protease, versus those that do not ([1]; LB agar with 11.2 mg/L CMA as well as MGMM in the plate, summary of Table 3) | Growth on the plate, 10R inactive (SOL218) [2, 4] | Growth on the plate, 10R inactive (SOL218) [2, 5] | Growth on the plate, 10R inactive (SOL218) [2, 6] | Growth on the plate, 10R inactive (SOL218) [2, 7] | Growth on the plate, 10R inactive (SOL218) [2, 8] | Growth of transformed yeast on the triglyceride plates in the presence of cerulinine [3]
1 | O=C(O)CONO [CMA, carboxymethoxylhydroxylamine] | Yes | No | No | No | No | only those can grow | No | No | No | No | No | –
2 | C/C=C/C/C=C/CCC(=O)[C@H]1O[C@H]1C(N)=O [cerulinine, cerulenin] | – | – | – | – | – | – | – | – | – | – | – | Only yeast cells transformed with pENI4158, which express active lipase, were able to grow
